structure (smiles),measurement,value
"Cc1cc(C)c(C2C(=O)OC3(CCN(N(C)C)CC3)C2=O)c(C)c1 (stereo not shown) [A11, 8-Dimethylamino-3-(2,4,6-trimethyl-phenyl)-1-oxa-8-azaspiro[4.5]decane-2,4-dione]",melting point,> 200 °C
